Reference: ChEMBL document CHEMBL1201862, “PubChem BioAssay data set” (2004)
Calls of active or inactive are those of the source.

Tests used:
[1] = molecular target: Sphingosine 1-phosphate receptor 2 (Homo sapiens, UniProt O95136); assay: Dose Response Cell Based Assay for Antagonists of the S1P2 Receptor. [Related pubchem assays: 856, 736 ]; assay type: functional
[2] = system: BJ; assay: BJ-TERT fibroblast viability loss – cell-based, RAS-independent, luminescence, dose response (AID 1933); assay type: functional; details: Homo sapiens
[3] = system: BJ; assay: cells; assay type: functional, cell-based; details: Homo sapiens
[4] = viability of PTEN-deleted HCT116 cells – cell-based, HCT116 PTEN knockout, dose response (AID 1047); assay type: functional;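 also: HCT116 colon tumor cells with PTEN knocked out; cells exposed to compound for 60 hours before readout; potency for loss of cell viability measured by luminescence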
[5] = molecular target: T1, Calpain-2 catalytic subunit (Sus scrofa, UniProt P43367); assay: m-calpain protease blockers, concentration series – biochemical, fluorogenic peptide substrate, dose response (AID 1420); assay type: functional
T1 sequence (P43367 whole entry): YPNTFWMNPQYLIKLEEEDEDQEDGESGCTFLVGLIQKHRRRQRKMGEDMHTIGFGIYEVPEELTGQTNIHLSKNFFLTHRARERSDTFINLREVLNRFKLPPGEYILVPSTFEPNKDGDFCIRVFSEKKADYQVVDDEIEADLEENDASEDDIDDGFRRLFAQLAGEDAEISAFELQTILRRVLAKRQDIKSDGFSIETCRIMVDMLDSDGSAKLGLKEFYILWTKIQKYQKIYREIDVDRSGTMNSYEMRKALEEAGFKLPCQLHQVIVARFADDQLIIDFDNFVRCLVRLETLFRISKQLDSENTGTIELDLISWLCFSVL

[6] = viability of HCT116 lacking mutant beta-catenin – cell-based, human colon tumor, dose response (AID 1045); assay type: functional;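 also: HCT116 colon tumor cells with beta catenin knocked out; cells exposed to compound for 60 hours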
[7] = system: BJ; assay: BJ-TERT-LT-ST fibroblast viability loss – cell-based, RAS-independent, luminescence, dose response (AID 1935); assay type: functional; details: Homo sapiens;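 also: BJ fibroblasts immortalized with TERT plus LT and ST oncogenes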
[8] = DRD fibroblast viability loss – cell-based, non-viral oncogenic, luminescence, dose response (AID 1934); assay type: functional; details: Homo sapiens
[9] = molecular target: NACHT, LRR and PYD domains-containing protein 3 (Homo sapiens, UniProt Q96P20); assay: NALP3 inhibitors in yeast, dose response, luminescent (AID 488799); assay type: functional
Sequence of NACHT, LRR and PYD domains-containing protein 3 (Q96P20 whole entry, the tested form may be a part): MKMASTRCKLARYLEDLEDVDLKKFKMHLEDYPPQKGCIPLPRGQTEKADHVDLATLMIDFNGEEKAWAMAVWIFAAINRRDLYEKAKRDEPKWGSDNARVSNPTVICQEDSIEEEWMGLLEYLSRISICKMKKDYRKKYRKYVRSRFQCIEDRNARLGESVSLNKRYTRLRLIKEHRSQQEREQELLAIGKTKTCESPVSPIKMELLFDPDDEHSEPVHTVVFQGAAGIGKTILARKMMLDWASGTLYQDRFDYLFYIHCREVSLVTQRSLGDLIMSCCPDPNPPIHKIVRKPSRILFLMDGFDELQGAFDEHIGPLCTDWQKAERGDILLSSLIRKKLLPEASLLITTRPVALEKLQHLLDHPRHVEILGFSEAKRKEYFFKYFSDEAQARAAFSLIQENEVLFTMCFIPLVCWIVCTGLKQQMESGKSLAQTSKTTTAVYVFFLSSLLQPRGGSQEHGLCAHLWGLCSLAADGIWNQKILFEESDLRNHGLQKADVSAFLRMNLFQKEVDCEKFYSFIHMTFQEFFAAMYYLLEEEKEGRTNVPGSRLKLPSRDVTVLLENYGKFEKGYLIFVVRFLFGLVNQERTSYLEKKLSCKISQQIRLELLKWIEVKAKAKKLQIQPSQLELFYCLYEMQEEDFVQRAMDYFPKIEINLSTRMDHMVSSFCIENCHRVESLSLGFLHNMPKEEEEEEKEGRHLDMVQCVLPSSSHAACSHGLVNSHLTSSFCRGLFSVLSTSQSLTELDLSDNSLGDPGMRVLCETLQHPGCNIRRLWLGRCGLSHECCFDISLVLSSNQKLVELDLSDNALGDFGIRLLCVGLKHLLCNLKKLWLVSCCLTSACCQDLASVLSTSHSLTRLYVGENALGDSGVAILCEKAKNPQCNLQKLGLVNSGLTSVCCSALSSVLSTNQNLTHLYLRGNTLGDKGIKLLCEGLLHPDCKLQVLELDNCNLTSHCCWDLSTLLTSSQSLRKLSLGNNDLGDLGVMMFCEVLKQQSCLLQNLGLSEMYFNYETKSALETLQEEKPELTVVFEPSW

[10] = HEK-293T viability loss after treatment – luminescence, T-cell screen hits, cytotoxicity control for TCR NF-kB inhibitor project, dose response (AID 489026); assay type: functional, cell-based;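 also: cells exposed to compound about 14 hours before the viability readout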
[11] = molecular target: Mu-type opioid receptor (Homo sapiens, UniProt P35372); assay: SAR Analysis of Antagonists of the MOR Receptor using an Image-Based Assay - Set 3. [Related pubchem assays (depositor defined):AID1777, AID1785, AID1786, AID1966, AID2133, AID2136, AID2284, AID2285, AID2420]; assay type: functional
Sequence of Mu-type opioid receptor (P35372 whole entry): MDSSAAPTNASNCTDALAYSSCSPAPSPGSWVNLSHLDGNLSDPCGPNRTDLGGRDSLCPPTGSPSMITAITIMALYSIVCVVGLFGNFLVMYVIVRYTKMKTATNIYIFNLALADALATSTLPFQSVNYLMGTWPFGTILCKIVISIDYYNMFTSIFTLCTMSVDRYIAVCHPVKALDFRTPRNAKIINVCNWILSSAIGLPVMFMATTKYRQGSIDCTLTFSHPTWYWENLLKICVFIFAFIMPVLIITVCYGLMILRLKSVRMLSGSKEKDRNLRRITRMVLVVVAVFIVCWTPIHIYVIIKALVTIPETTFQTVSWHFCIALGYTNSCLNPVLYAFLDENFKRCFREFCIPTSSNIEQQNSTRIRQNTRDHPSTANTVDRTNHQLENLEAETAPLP

[12] = molecular target: Delta-type opioid receptor (Homo sapiens, UniProt P41143); assay: SAR Analysis of Antagonists of the DOR Receptor using an Image-Based Assay - Set 3. [Related pubchem assays (depositor defined):AID1777, AID1785]; assay type: functional;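 also: U2OS cells expressing DOR1 and beta-arrestin GFP stimulated with 100 nM SNC80; imaging of GFP-tagged beta-arrestin moving into spots after receptor activation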
Sequence of Delta-type opioid receptor (P41143 whole entry): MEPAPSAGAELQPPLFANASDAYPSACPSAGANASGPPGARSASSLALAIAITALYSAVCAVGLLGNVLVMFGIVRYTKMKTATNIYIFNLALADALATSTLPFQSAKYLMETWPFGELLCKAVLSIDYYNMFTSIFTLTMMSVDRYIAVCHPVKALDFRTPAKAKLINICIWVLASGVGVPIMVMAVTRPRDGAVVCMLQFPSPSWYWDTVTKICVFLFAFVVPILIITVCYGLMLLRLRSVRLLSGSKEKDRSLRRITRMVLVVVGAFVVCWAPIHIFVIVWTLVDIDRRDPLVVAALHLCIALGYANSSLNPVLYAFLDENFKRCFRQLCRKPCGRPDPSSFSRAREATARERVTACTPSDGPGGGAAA

[13] = molecular target: T2, Kappa-type opioid receptor (Homo sapiens, UniProt P41145); assay: SAR analysis of small molecule antagonists of the kappa opioid receptor via a luminescent beta-arrestin assay - Set 3. [Related pubchem assays (depositor defined):AID1777, AID1778, AID1785, AID1786, AID1966, AID2133, AID2136, AID2285, AID2495]; assay type: functional
T2 sequence (P41145 whole entry): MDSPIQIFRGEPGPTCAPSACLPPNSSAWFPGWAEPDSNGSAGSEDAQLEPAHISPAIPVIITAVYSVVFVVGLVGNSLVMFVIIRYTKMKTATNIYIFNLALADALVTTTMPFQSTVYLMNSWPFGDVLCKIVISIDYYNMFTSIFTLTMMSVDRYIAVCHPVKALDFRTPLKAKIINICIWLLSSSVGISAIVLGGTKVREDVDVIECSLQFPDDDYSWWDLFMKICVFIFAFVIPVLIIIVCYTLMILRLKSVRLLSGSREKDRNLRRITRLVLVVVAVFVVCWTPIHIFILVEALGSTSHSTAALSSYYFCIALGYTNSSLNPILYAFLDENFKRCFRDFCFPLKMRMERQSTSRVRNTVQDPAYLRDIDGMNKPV

[14] = molecular target: T2, Kappa-type opioid receptor; assay: SAR analysis of Antagonists of the Kappa Opioid Receptor (KOR) using an Image-Based Assay - Set 3. [Related pubchem assays (depositor defined):AID1777, AID1785]; assay type: functional
[15] = molecular target: T2, Kappa-type opioid receptor; assay: SAR analysis of Antagonists of the Kappa Opioid Receptor (KOR) using an Image-Based Assay - Set 4. [Related pubchem assays (depositor defined):AID1777, AID1785]; assay type: functional
[16] = Luminescence Cell-Based Dose Response HTS to Identify Activators of Luciferase Translation or Activity in H4-C Neuroglioblastoma Cells. [Related pubchem assays: 1829 (Project Summary), 1814 (Primary HTS)]; assay type: functional
[17] = Luminescence Cell-Based Dose Retest to Confirm Activators of 5'UTR Stem-Loop Driven Alpha-Synuclein mRNA Translation in H4 Neuroglioblastoma Cells. [Related pubchem assays (depositor defined):AID1813, AID1829]; assay type: functional
[18] = Luminescence Cell-Based Dose Response HTS to Identify Activators of 5'UTR Stem-Loop Driven Prion Protein mRNA Translation in H4-C Neuroglioblastoma Cells. [Related pubchem assays: 1829 (Project Summary), 1814 (Primary HTS)]; assay type: functional
[19] = Luminescence Cell-Based Dose Confirmation HTS to Identify Activators of 5'UTR Stem-Loop Driven Alpha-Synuclein mRNA Translation in H4 Neuroglioblastoma Cells. [Related pubchem assays: 1829 (Project Summary), 1814 (Primary HTS)]; assay type: functional
[20] = Luminescence Cell-Based Dose Response HTS to Identify Activators of Luciferase Translation or Activity in H4 […] Cells. [Related pubchem assays: 1829 (Project Summary), 1814 (Primary HTS)]; assay type: functional
[21] = system: H4; assay: Luminescence Cell-Based Dose Response HTS to Identify Activators of 5'UTR Stem-Loop Driven Prion Protein mRNA Translation in H4 Neuroglioblastoma Cells. [Related pubchem assays: 1829 (Project Summary), 1814 (Primary HTS)]; assay type: functional; details: Homo sapiens
[22] = molecular target: Protein Rev (Human immunodeficiency virus type 1 group M subtype B (isolate HXB2)(HIV-1), UniProt P04618); assay: blockers of HIV Rev/RRE RNA complex – biochemical, fluorescence polarization, HIV-1, dose response (AID 434976); set-up: species or system Human immunodeficiency virus 1
Sequence of Protein Rev (P04618 whole entry): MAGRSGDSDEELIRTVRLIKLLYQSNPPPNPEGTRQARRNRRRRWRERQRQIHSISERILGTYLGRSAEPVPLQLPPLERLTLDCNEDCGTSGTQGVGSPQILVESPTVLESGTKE

[23] = molecular target: Female germline-specific tumor suppressor gld-1 (Caenorhabditis elegans, UniProt Q17339); assay: blockers of GLD-1/TGE RNA complex formation – biochemical, fluorescence polarization, C. elegans, dose response (AID 2802);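 also: fluorescence polarization of labeled TGE RNA bound by purified gld-1 protein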
Sequence of Female germline-specific tumor suppressor gld-1 (Q17339 whole entry): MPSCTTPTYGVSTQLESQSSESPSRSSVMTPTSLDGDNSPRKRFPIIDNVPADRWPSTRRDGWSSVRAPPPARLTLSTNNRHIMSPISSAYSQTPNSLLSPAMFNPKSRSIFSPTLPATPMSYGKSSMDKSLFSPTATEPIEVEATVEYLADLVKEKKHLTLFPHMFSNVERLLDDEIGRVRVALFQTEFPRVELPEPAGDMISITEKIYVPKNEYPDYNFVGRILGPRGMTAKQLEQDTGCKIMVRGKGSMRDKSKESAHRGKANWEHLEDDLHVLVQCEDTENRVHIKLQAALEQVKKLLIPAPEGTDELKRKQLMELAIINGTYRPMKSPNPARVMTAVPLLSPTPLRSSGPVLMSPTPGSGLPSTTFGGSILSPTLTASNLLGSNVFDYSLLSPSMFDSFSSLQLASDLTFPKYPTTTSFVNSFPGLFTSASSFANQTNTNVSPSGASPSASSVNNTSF

[24] = molecular target: T3, Bcl-2-related protein A1 (Mus musculus, UniProt Q07440); assay type: functional;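 also: confirmatory dose–response counterscreen on Bfl-1, used to check hits from a UBC13 polyubiquitin inhibitor campaign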
T3 sequence (Q07440 whole entry): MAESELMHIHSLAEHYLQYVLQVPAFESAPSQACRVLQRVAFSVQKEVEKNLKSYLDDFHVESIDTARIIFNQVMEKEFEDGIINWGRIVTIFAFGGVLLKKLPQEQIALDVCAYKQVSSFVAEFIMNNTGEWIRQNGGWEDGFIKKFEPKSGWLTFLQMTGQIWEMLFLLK

[25] = molecular target: T4, Ubiquitin-conjugating enzyme E2 N (Homo sapiens, UniProt P61088); assay type: functional
T4 sequence (P61088 whole entry): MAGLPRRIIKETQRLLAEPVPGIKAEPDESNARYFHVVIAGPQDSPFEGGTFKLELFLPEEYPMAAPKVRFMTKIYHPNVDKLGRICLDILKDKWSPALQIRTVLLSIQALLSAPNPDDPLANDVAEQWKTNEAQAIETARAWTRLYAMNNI

[26] = molecular target: T4, Ubiquitin-conjugating enzyme E2 N; assay type: functional; remark: listed apart in the source
[27] = system: Vero; assay: cells; assay type: functional; details: Chlorocebus sabaeus
[28] = molecular target: Envelope glycoprotein gp160 (Human immunodeficiency virus 1, UniProt Q6QLK5); assay: cell-free HIV fusion peptide-binding blockers – biochemical, uHTS, fluorescence dequenching, […] (AID 1986)
Sequence of Envelope glycoprotein gp160 (Q6QLK5 whole entry, the tested form may be a part): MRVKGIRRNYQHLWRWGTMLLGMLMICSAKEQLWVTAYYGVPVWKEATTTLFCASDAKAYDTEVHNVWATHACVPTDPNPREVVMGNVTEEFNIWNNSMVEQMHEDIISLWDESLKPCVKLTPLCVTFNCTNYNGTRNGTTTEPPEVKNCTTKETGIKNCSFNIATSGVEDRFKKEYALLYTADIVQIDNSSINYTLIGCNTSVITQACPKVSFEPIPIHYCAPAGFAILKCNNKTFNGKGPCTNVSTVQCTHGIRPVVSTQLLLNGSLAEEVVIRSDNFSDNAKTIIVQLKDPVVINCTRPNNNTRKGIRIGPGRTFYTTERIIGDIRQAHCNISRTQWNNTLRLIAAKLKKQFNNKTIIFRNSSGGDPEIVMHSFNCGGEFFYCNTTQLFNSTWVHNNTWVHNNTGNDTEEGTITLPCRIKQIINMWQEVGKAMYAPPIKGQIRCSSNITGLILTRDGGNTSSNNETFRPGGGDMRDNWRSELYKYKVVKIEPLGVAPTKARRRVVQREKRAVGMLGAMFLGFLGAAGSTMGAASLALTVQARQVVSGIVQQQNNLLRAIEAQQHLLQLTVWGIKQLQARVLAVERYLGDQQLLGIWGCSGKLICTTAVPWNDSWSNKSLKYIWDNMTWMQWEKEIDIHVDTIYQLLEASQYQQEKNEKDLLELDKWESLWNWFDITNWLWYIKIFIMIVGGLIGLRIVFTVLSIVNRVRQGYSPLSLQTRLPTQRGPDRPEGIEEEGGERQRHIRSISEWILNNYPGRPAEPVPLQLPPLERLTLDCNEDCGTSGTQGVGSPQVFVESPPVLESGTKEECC

[29] = molecular target: Trypsin (Sus scrofa, UniProt P00761); assay: trypsin protease activity blockade – biochemical, quenched peptide fluorescence, cherry-pick, selectivity assay for Rce1 protease inhibitor project, dose response (AID 488789)
Sequence of Trypsin (P00761 whole entry): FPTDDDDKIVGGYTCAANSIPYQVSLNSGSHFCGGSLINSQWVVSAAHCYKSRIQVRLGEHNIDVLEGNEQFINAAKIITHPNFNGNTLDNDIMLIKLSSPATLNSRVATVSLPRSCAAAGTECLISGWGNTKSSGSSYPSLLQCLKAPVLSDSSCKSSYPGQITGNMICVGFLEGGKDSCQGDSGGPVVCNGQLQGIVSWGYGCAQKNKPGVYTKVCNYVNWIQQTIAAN

Sequence of Sphingosine 1-phosphate receptor 2 (O95136 whole entry): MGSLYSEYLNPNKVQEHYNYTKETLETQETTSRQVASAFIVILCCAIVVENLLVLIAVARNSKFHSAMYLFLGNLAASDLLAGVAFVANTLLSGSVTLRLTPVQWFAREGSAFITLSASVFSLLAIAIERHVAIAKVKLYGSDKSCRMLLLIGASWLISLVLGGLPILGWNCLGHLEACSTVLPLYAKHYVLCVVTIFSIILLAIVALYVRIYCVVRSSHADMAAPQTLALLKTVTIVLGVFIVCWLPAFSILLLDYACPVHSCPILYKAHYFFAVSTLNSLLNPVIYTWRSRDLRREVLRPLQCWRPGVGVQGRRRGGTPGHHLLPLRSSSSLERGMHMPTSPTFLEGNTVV

CCCCCCCCCn1c2c(c(=N)c3c1CCC3)CCC2
IC50 [1]: 9.03 µM (active) | EC50 [2]: 1.15 µM (active) | EC50 [3]: 2.07 µM (active) | EC50 [4]: 0.728 µM (active) | IC50 [5]: 7.18 µM (active) | EC50 [6]: 0.561 µM (active) | EC50 [7]: 8.37 µM (inconclusive) | EC50 [8]: 3.16 µM (active) | IC50 [9]: 9.02 µM (active) | IC50 [10]: 47.8 µM (inactive)

Cc1ccc(N2CCN(CCCNC(=O)Cn3c(=O)c4cccn4c4cccnc43)CC2)cc1
IC50 [11]: 18.8 µM (inactive) | IC50 [12]: > 32 µM (inactive) | IC50 [13]: 3.68 µM (active) | IC50 [14]: 0.776 µM (active) | IC50 [15]: 1.01 µM (active)

Cc1nn(C)c(Sc2ccccn2)c1[N+](=O)[O-]
EC50 [16]: > 195 µM (not active) | EC50 [17]: > 195 µM (inactive) | EC50 [18]: > 195 µM (not active) | EC50 [19]: 1.7 µM (active) | EC50 [20]: 88.4 µM (active) | EC50 [21]: > 120 µM (not active)

CN1CC2=Cc3ccccc3OC23Oc2ccccc2C=C3C1
IC50 [22]: > 75.4 µM (not active) | IC50 [23]: > 59.6 µM (inactive) | EC50 [4]: 25 µM (active) | EC50 [6]: 23 µM (active) | IC50 [24]: > 20 µM (inactive) | IC50 [25]: 2.55 µM (active) | IC50 [26]: 3.5 µM (active) | CC50 [27]: 18.9 µM (active)

O=C(O)CN1C(=O)/C(=C\c2cn(-c3ccccc3)nc2-c2ccccc2)SC1=S
IC50 [28]: > 99 µM (inactive) | EC50 [2]: 31.1 µM (active) | EC50 [3]: > 150 µM (not active) | EC50 [7]: > 150 µM (not active) | EC50 [8]: 41.4 µM (active)

COc1cccc(-c2ccc(-c3noc(-c4ccccc4F)n3)c(OC)n2)c1
AC50 [29]: 14.3 µM (active)
